Laboratory results: patent publication US20220041641A1, “QUATERNARY AMMONIUM SALTS AS INHIBITORS OF TRIMETHYLAMINE PRODUCTION” (Senda Biosciences, Inc., priority 2018, published 2022)
Read-outs that look alike come from different tables or passages of the source.

Legend:
[1] = Caco-2 permeability assay; type: in vitro ADME; conditions: human
Method: Preparation of Caco-2 Cells: 50 μL and 25 mL of cell culture medium were added to each well of the Transwell insert and reservoir, respectively. The HTS transwell plates were incubated at 37° C., 5% CO2 for 1 hour before cell seeding. […] Cell culture medium was replaced every other day, beginning no later than 24 hours after initial plating.
Assessment of Cell Monolayer Integrity: Medium was removed from the reservoir and each Transwell insert and replaced with prewarmed fresh culture medium. Transepithelial electrical resistance (TEER) across the monolayer was measured using Millicell Epithelial Volt-Ohm measuring system (Millipore, USA). The Plate was returned to the incubator once the measurement was done. The TEER value was calculated according to the following equation: […]
Preparation of Solutions: 2 mM stock solutions in DMSO of control compounds were prepared and diluted with HBSS (10 mM HEPES, pH 7.4) to get 10 μM working solution. 0.2 mM stock solutions of test compounds in DMSO were prepared and diluted with HBSS (10 mM HEPES, pH 7.4 with 0.5% BSA) to get 1 μM working solution. Metoprolol, erythromycin and cimetidine were used as control compounds.
The Caco-2 plate was removed from the incubator. The monolayer was washed twice with pre-warmed HBSS (10 mM HEPES, pH 7.4). The plate was incubated at 37° C. for 30 minutes. To determine the rate of drug transport in the apical to basolateral direction, 125 μL of the working solution was added to the Transwell insert (apical compartment). A 50 μL sample was transferred immediately from the apical compartment to 200 μL of acetonitrile containing IS (100 nM alprazolam, 200 nM Caffeine and 100 nM tolbutamide) in a new 96-well plate as the initial donor sample (A-B) and it was vortexed at 1000 rpm for 10 minutes. The wells in the receiver plate (basolateral compartment) were filled with 235 μL of transport buffer. To determine the rate of drug transport in the basolateral to apical direction, 285 μL of the working solution were added to the receiver plate wells (basolateral compartment). A 50 μL sample was transferred immediately from the basolateral compartment to 200 μL of acetonitrile containing IS (100 nM alprazolam, 200 nM Caffeine and 100 nM tolbutamide) in a new 96-well plate as the initial donor sample (B-A) and it was vortexed at 1000 rpm for 10 minutes. The Transwell insert (apical compartment) was filled with 75 μL of transport buffer. The apical to basolateral direction and the basolateral to apical direction need to be done at the same time. The plates were incubated at 37° C. for 2 hours. At the end of the incubation, 50 μL samples from donor sides (apical compartment for Ap→Bl flux, and basolateral compartment for B1→Ap) and receiver sides (basolateral compartment for Ap→Bl flux, and apical compartment for B1→Ap) were transferred to wells of a new 96-well plate, followed by the addition of 4 volume of acetonitrile containing IS (100 nM alprazolam, 200 nM Caffeine and 100 nM tolbutamide). Samples were vortexed for 10 minutes, 50 μL samples were transferred to wells of a new 96-well plate, followed by the addition of 50 μL Hepes and 200 μL IS. All samples were vortexed for 10 minutes, and then centrifuged at 3,220 g for 40 minutes. An aliquot of 150 μL of the supernatant was mixed with an appropriate volume of ultra-pure water before LC-MS/MS analysis.
Apparent permeability (Papp) can be calculated for drug transport assays using the following equation: […]
Papp is apparent permeability (cm/s×10^−6);
Papp (B-A) indicates the apparent permeability coefficient in basolateral to apical direction, and
Papp (A-B) indicates the apparent permeability coefficient in apical to basolateral direction.

[2] = biological target: CutC from Proteus mirabilis (Proteus mirabilis, UniProt B4EYG1); experiment: Cell-based assay for TMA production from a native producer (P. mirabilis); conditions: d9-TMA from 1 mM d9-choline, 5 h, 37° C.; value 10 given when no fit or % TMA remaining at 10 μM higher than 15%; read-out: Average IC50 Whole cell P. mirabilis
Summary of the method: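 Overnight anaerobic cultures of P. mirabilis or C. sporogenes, grown in BHI with 1 mM choline, were diluted and given 1 mM (trimethyl-d9)-choline plus compound at 10 μM final. After 5 h at 37° C., d9-TMA was quantified by LCMS.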

CutC/D enzyme = experiment: Acute mouse model (plasma TMAO on choline diet); type: in vivo, male C57BL/6 mice
Method: The following acute mouse model may be used to determine inhibition of the CutC/D enzyme and thus the inhibition of the formation of trimethylamine (TMA) from choline.
On day 1, male C57BL/6 mice were given a chemically defined diet (Tekland Global Rodent Diet 2018) containing 1.0% choline (g/g) for the duration of the experiment. Concurrently on day 1, mice were orally gavaged with 200 μL of compounds of interest (formulated in water). Mice were orally gavaged with the compounds and vehicle control again on day 2 and day 3 at a fixed time. Twenty hours after the last gavage, mice were sacrificed, and plasma was collected and prepared for detection of trimethylamine-N-oxide (TMAO) via liquid chromatography with on-line tandem mass spectrometry (LC-MS/MS). Food consumption and mouse weight were measured each day.
Plasma samples were prepared for LCMS as follows: An aliquot of 20 μL plasma sample was protein precipitated with 200 μL internal standard solution (100 ng/mL Labetalol & 100 ng/mL Tolbutamide & 100 ng/mL Diclofenac in acetonitrile, the mixture was vortex-mixed and centrifuged at 4000 rpm for 15 min, 4° C. An aliquot of 100 μL supernatant was transferred to the sample plate for LCMS injection. 1 μL of sample was injected onto an LC column for TMAO LCMS analysis.
Concentrations of TMAO were determined with a calibration curve ranging 0.05-100 μM for d9-TMAO in control plasma.

in vivo = experiment: in vivo; design: species or system Sprague-Dawley rats; conditions: Sprague-Dawley, rat
Method: Sprague-Dawley rats (three rats per compound) were treated with a single intravenous (IV) 1 mg/kg dose or orally (PO) a single 10 mg/kg dose. Plasma concentrations of the conjugates were determined by LCMS at 5 minutes, 15 minutes, 30 minutes, 1 hour, 2 hours, 4 hours, 8 and 24 hours post compound administration. […] In addition, the plasma exposure and bioavailability of the active agent of was lower when dosed as a conjugate instead of the active agent alone.

[3] = biological target: CutC from Clostridium sporogenes (Clostridium sporogenes, UniProt A0AAE4Z0A8); experiment: Cell-based assay for TMA production from a native producer (C. sporogenes); conditions: read-out: IC50 Whole cell C. sporogenes; d9-TMA from 1 mM d9-choline, 5 h, 37° C.; run once; value 10 given when no fit or % TMA remaining at 10 μM higher than 15%
From the text: In each bacterium, CutC was modified into its activated form by a cognate activating enzyme, CutD (protein EDU36696.1 for C. sporogenes; protein WP_004249185.1 for P. mirabilis). […] Trimethylamine may subsequently be converted by human enzymes such as flavin monooxygenase 3 to trimethylamine N-oxide, which might be associated with negative health consequences in humans.
A compound's ability to inhibit CutC from Proteus mirabilis and C. sporogenes from converting choline into trimethylamine was tested in cells as described. A BHI blood plate was inoculated with a frozen stock of Proteus mirabilis or Clostridium sporogenes under anaerobic conditions. A single colony was isolated from the plate and inoculated into 5 mL BHI supplemented with 1 mM choline under anaerobic conditions. The liquid cultures were grown overnight at 37° C.
To prepare each sample, 300 μL of the saturated culture was then inoculated into a 30 mL dilution blank under anaerobic conditions. 1 mM (trimethyl-d9)-choline and a sufficient amount of a compound to obtain a final concentration of 10 μM were added to the inoculated dilution blank. […] The mixture was incubated at 37° C. for 5 h. […] After centrifugation, the samples were analyzed by LCMS to determine the amount of d9-TMA produced.

Chain of CutC from Proteus mirabilis (B4EYG1 entry or part of it): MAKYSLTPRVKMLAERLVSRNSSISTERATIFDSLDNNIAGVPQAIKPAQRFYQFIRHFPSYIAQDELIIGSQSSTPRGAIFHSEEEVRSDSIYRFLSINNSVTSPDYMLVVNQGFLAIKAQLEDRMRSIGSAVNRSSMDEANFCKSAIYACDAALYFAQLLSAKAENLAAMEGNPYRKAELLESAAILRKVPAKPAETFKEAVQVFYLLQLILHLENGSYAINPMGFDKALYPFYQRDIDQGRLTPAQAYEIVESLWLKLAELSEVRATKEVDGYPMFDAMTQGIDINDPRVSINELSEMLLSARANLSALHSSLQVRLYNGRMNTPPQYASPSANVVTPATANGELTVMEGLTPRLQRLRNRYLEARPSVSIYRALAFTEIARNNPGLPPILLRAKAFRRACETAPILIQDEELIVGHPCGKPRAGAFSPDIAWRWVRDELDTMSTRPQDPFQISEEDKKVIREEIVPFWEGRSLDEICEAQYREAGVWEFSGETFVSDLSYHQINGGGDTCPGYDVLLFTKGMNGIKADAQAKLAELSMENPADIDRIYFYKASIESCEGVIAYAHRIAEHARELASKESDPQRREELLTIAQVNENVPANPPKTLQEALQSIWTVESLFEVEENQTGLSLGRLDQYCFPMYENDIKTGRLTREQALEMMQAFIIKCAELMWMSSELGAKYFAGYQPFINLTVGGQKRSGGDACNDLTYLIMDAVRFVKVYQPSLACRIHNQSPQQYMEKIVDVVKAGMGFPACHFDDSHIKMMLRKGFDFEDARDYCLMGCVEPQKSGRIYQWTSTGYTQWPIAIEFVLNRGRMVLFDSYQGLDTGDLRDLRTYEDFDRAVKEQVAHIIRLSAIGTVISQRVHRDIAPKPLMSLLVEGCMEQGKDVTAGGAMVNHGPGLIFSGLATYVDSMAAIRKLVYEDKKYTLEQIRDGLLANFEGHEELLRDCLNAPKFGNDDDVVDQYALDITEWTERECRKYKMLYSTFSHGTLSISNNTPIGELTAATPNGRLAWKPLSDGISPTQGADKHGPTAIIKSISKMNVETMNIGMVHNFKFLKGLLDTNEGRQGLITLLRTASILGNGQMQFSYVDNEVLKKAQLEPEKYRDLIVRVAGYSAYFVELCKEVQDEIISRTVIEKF
Chain of CutC from Proteus mirabilis (B4EYG0 entry or part of it, further chain): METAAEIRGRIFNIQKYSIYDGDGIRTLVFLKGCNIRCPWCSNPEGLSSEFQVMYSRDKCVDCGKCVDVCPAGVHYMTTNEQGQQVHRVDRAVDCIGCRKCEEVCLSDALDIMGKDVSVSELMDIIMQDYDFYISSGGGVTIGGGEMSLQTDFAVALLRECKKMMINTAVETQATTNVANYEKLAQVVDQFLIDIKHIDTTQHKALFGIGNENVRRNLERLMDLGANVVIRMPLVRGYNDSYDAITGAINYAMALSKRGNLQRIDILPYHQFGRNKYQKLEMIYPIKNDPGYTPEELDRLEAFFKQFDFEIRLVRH
Chain of CutC from Clostridium sporogenes (A0ABD6RTF0 entry or part of it): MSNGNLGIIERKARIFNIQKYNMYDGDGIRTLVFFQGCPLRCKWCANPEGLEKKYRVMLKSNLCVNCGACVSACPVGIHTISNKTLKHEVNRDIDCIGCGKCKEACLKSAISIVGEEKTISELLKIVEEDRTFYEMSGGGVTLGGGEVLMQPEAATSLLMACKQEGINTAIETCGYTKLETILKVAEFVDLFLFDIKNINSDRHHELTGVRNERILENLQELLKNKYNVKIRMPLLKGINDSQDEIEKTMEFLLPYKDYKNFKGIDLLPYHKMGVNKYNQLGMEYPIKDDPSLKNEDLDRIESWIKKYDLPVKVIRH
Chain of CutC from Clostridium sporogenes (A0AAE4Z0A8 entry or part of it): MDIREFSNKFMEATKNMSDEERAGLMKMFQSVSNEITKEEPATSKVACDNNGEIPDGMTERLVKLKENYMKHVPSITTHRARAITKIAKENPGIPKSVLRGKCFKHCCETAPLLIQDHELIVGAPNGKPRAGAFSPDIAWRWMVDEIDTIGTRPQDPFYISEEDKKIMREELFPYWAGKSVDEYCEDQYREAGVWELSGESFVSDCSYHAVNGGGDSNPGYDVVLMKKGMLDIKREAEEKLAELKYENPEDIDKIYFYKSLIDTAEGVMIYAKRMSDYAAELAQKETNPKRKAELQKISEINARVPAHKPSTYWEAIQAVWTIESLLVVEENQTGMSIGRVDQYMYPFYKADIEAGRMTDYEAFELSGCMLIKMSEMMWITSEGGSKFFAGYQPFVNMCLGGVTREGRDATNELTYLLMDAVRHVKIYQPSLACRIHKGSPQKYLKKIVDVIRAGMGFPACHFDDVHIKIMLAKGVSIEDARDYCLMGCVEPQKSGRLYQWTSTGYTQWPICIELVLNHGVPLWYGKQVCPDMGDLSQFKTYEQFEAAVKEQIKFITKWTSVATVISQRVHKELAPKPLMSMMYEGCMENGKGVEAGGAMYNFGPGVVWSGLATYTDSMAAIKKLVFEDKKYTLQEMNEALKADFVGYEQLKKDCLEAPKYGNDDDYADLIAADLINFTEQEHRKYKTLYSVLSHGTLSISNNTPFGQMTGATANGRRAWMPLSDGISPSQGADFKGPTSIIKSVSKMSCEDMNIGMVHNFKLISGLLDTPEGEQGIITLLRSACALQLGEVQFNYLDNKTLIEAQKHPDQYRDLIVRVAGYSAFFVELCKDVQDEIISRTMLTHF

Row | SMILES | Papp A→B at 2 h, 1 µM ([1]; Caco-2, pH 7.4) [×10⁻⁶ cm/s] | Papp B→A at 2 h, 1 µM ([1]; Caco-2, pH 7.4) [×10⁻⁶ cm/s] | IC50 [2] [µM] | % change from vehicle control + choline diet (CutC/D enzyme; Table 4a, 358 mg/kg oral gavage days 1-3) [%] | Mean plasma TMAO (CutC/D enzyme; Table 4a, 358 mg/kg oral gavage days 1-3, plasma 20 h after last gavage) [µM] | % change from vehicle control + choline diet (CutC/D enzyme; Table 4c, 35.8 mg/kg oral gavage days 1-3) [%] | Mean plasma TMAO (CutC/D enzyme; Table 4c, 35.8 mg/kg oral gavage days 1-3, plasma 20 h after last gavage) [µM] | % change from vehicle control + choline diet (CutC/D enzyme; Table 4c, 107 mg/kg oral gavage days 1-3) [%] | Mean plasma TMAO (CutC/D enzyme; Table 4c, 107 mg/kg oral gavage days 1-3, plasma 20 h after last gavage) [µM] | % change from vehicle control + choline diet (CutC/D enzyme; Table 4c, 358 mg/kg oral gavage days 1-3) [%] | Mean plasma TMAO (CutC/D enzyme; Table 4c, 358 mg/kg oral gavage days 1-3, plasma 20 h after last gavage) [µM] | Cmax (in vivo; iv, 1 mg/kg) [µM] | Cmax (in vivo; po, 10 mg/kg) [µM] | bioavailability (in vivo; po, 10 mg/kg) [%] | Papp A→B at 2 h, 1 µM ([1]; pH 7.4, Caco-2, apical to basolateral, 1 μM, 2 hours, 37° C., read-out: Papp A-B) [×10⁻⁶ cm/s] | Papp B→A at 2 h, 1 µM ([1]; pH 7.4, Caco-2, basolateral to apical, 1 μM, 2 hours, 37° C., read-out: Papp B-A) [×10⁻⁶ cm/s] | IC50 [3] [µM] | % change from vehicle control + choline diet (CutC/D enzyme; Table 4g, 116 mg/kg oral gavage days 1-3) [%] | Mean plasma TMAO (CutC/D enzyme; Table 4g, 116 mg/kg oral gavage days 1-3, plasma 20 h after last gavage) [µM]
1 | C#CC[N+](C)(C)CCO[C@@H]1O[C@H](COC(C)=O)[C@@H](OC(C)=O)[C@H](OC(C)=O)[C@H]1OC(C)=O.[I-] [Compound 7, N,N-dimethyl-N-(2-(((2R,3R,4S,5R,6R)-3,4,5-triacetoxy-6-(acetoxymethyl)tetrahydro-2H-pyran-2-yl)oxy)ethyl)prop-2-yn-1-aminium Iodide] | 0.1 | 0.15 | 3.16 | −79.95 | 6.90 | −2.97 | 20.4 | −24.83 | 15.8 | −69.46 | 6.41 | 19.7 | 0.0162 | 1.1 | – | – | – | – | –
2 | C[N+](C)(CCO)CC1CC1.[Br-] [Compound 107, N-(cyclopropylmethyl)-2-hydroxy-N,N-dimethylethan-1-aminium Bromide] | – | – | ≥ 10 | – | – | – | – | – | – | – | – | – | – | – | 26.8 | 31.1 | ≥ 10 | – | –
3 | C[N+]1(CF)CCC[C@H]1CO.[I-] (stereo partly drawn) [Compound 109, (2S)-1-(fluoromethyl)-2-(hydroxymethyl)-1-methylpyrrolidin-1-ium iodide] | 0.6 | 0.5 | 0.62 | – | – | – | – | – | – | – | – | – | – | – | – | – | 0.42 | −90 | 2.71
